Five compounds from patent publication US5057512A, “3-amino-2-oxo-azetidine-1-sulfonic acids” (Uclaf; Roussel, priority 1981, dated 1991) can be followed below.

Common to all, as to assay: M.I.C., dilutions in liquid medium
Common to all, as to type: cell-based

In one assay the test system is Escherichia coli DC 0. Particulars: 37° C.; for MIC: Escherichia coli. On the procedure: (§1) A. Activity in Vitro-Method of Dilutions in Liquid Medium
(§2) A series of tubes was prepared in which the same amount of sterile nutritive medium was distributed and there was distributed in each tube increasing amounts of the test product. Then, each tube was inoculated with a bacterial strain and after incubation for twenty-four or forty-eight hours in an oven at 37° C., the inhibition of the growth was evaluated by trans-illumination to determine the minimum inhibiting concentrations (M.I.C.), expressed in μg/ml.

The subject of assay [1] is Serratia Resistant to Gentamycine 2 532. The settings on record: 37° C.; for MIC: Serratia; for M.I.C.: 24 Hr. On the procedure: as §1, §2
The next assay concerns Escherichia coli 1507 E. Particulars: 37° C.; for MIC: Escherichia coli, 1507E. The procedure: as §1, §2
For the next assay, the system named is Escherichia coli T E M. The settings on record: 37° C.; for MIC: Escherichia coli. The procedure: as §1, §2
For assay [2], the system named is Proteus vulgaris (indol +) A 232. Particulars: 37° C.; for MIC: Proteus vulgaris. The procedure:
as §1, §2

In assay [3] the test system is Proteus mirabilis (indol -) A 235. The settings on record: 37° C.; for MIC: Proteus mirabilis. The procedure: as §1, §2
The subject of assay [4] is Enterobacter cloacae 1321 E. The settings on record: 37° C.; for MIC: Enterobacter cloacae, 1321E. The procedure:
as §1, §2

Assay [5] deals with Klebsiella aerogenes 1522 E. Particulars: 37° C.; for MIC: Klebsiella aerogenes, 1522E. On the procedure:
as §1, §2

A further assay relates to Escherichia coli 0 78. The settings on record: 37° C. The procedure:
as §1, §2

Another assay has as its system Escherichia coli DC 2. The settings on record: 37° C.; for MIC: Escherichia coli, DC2. On the procedure: as §1, §2
The next assay concerns Escherichia coli UC 1894. The settings on record: 37° C.; for MIC: Escherichia coli, UC1894. The procedure:
as §1, §2

Assay [6] has as its system Klebsiella Pneumoniae Exp. 52145. Particulars: 37° C.; for MIC: Klebsiella pneumoniae; for M.I.C.: 24 Hr. The procedure: as §1, §2
A further assay has as its system Providencia Du 48. Particulars: 37° C.; for MIC: Providencia, DU48. The procedure:
as §1, §2

In assay [7] the test system is Salmonella typhimurium MZ 11. Particulars: 37° C.; for MIC: Salmonella enterica, TYPHIMURIUM
On the procedure: as §1, §2

For assay [8], the system named is Escherichia Coli Resistant to Tetracycline AT CC 11 303. The settings on record: 37° C. On the procedure:
as §1, §2

Assay [9] concerns Klebsiella Pneumoniae 2536 Resistant Gentamycine. The settings on record: 37° C. The procedure:
as §1, §2

For assay [10], the system named is Escherichia Coli Sensitive to Tetracycline 7624. Particulars: 37° C. On the procedure:
as §1, §2

Assay [11] deals with Salmonella typhimurium 420. The settings on record: Salmonella enterica, 37° C. The procedure:
as §1, §2

The test system of assay [12] is Escherichia Coli Resistant to Gentamycine Tobramycine R55 123 D. Particulars: 37° C. On the procedure:
as §1, §2

Assay [13] has as its system Pseudomonas aeruginosa 1771 m. Particulars: 37° C.; for MIC: Pseudomonas aeruginosa, 1771M. On the procedure:
as §1, §2

In assay [14] the test system is Klebsiella aerogenes 1082 E. Particulars: 37° C.; for MIC: Klebsiella aerogenes, 1082E. On the procedure:
as §1, §2

[15] abbreviates: Escherichia coli, 078, 24 h, 24 H.
[16] abbreviates: Escherichia coli, 078, 48 h, 48 H.

The MIC is the smallest concentration in the dilution series that meets the test's criterion for growth inhibition. In the case of `Nc1nc(C(=NOC(F)F)C(=O)NC2C(=O)N(S(=O)(=O)O)C2CF)cs1` (mixture of isomers) [Example 8, Racemate of the syn isomer of cis 4-fluoromethyl-3-[2-(2-amino-4-thiazolyl)-2-difluoromethoxyimino-acetamido]-2-oxo-azetidine-1-sulfonic acid], the minimum inhibitory concentration (MIC) was 0.08 µg/mL against Escherichia coli DC 0 (DC0, 24 h, 24 H); 0.08 µg/mL in the assay on Escherichia coli DC 0 (DC0, 48 h, 48 H); 0.6 µg/mL in assay [1] (24 h); 0.6 µg/mL in assay [1] (48 h); at most 0.04 µg/mL in the assay on Escherichia coli 1507 E (24 h); at most 0.04 µg/mL against Escherichia coli 1507 E (48 h). For the same compound, the MIC was 0.15 µg/mL against Escherichia coli T E M (24 h); 0.15 µg/mL against Escherichia coli T E M (48 h); at most 0.04 µg/mL in [2] (24 Hr.); at most 0.04 µg/mL in [2] (48 Hr.); at most 0.04 µg/mL in assay [3] (24 h); at most 0.04 µg/mL in assay [3] (48 h). Further, the MIC (in assay [4] (24 H); in assay [4] (48 H); in [5] (24 h); in assay [5] (48 h); against Escherichia coli 0 78 (setting [15]); in the assay on Escherichia coli 0 78 (setting [16])) was 0.08 µg/mL each time. Also, the minimal inhibitory concentration (MIC) is at most 0.04 µg/mL in the assay on Escherichia coli DC 2 (24 H); at most 0.04 µg/mL against Escherichia coli DC 2 (48 H); at most 0.04 µg/mL with Escherichia coli UC 1894 (24 H); at most 0.08 µg/mL with Escherichia coli UC 1894 (48 H); 0.3 µg/mL in [6] (24 h); 0.3 µg/mL in assay [6] (48 h). For the same compound, the MIC against Providencia Du 48 (24 Hr.) is 0.3 µg/mL; in the assay on Providencia Du 48 (48 Hr.), 0.3 µg/mL; in [7] (24 h) it was 0.08 µg/mL; in assay [7] (48 h), 0.08 µg/mL.

Consider `NCCON=C(C(=O)NC1C(=O)N(S(=O)(=O)O)C1CCl)c1csc(N)n1` (mixture of isomers) [Example 3, Racemate of syn isomer of cis 4-chloromethyl-3[2(2-amino-4-thiazolyl)-2-(2-aminoethoxy)-imino-acetamido]-2-oxo-azetidine-1-sulfonic acid], for which the MIC in [1] (24 h) stood at 2.5 µg/mL; in assay [1] (48 h), 5 µg/mL; in [2] (24 Hr.), 1.2 µg/mL; in assay [2] (48 Hr.), 1.2 µg/mL; in assay [3] (24 h), 0.6 µg/mL; in [3] (48 h) it was 0.6 µg/mL. The MIC in [8] (24 Hr.) is 0.6 µg/mL; in [8] (48 Hr.) it was 0.6 µg/mL; in assay [9] (24 Hr.), 2.5 µg/mL; in assay [9] (48 Hr.), 2.5 µg/mL; in [10] (24 Hr.), 1.2 µg/mL; in assay [10] (48 Hr.) it was 1.2 µg/mL. Moreover, the MIC in assay [11] (24 Hr.) was found to be 2.5 µg/mL; in assay [11] (48 Hr.) it was 5 µg/mL; in [6] (24 h) it was 5 µg/mL; in assay [6] (48 h), 10 µg/mL; against Providencia Du 48 (24 Hr.) it was 2.5 µg/mL; against Providencia Du 48 (48 Hr.) it was 2.5 µg/mL. Besides, the MIC in assay [12] (24 Hr.) and in assay [12] (48 Hr.) was 1.2 µg/mL each time.

`CON=C(C(=O)NC1C(=O)N(S(=O)(=O)O)C1CF)c1csc(N)n1` (mixture of isomers) [Example 5, Racemate of syn isomer of cis 4-fluoromethyl-3-[2-(2-amino-4-thiazolyl)-2-methoxyimino-acetamido]-2-oxo-azetidine-1-sulfonic acid]: the minimal inhibitory concentration (MIC) in the assay on Escherichia coli DC 0 (DC0, 24 h, 24 H) came to 0.3 µg/mL; against Escherichia coli DC 0 (DC0, 48 h, 48 H), 0.3 µg/mL; in assay [13] (24 H), 0.6 µg/mL; in assay [13] (48 H) it was 1.2 µg/mL; in assay [1] (48 h) it was 1.2 µg/mL; against Escherichia coli 1507 E (24 h), 0.15 µg/mL. In addition, the minimum inhibitory concentration (MIC) in the assay on Escherichia coli 1507 E (48 h) is 0.15 µg/mL; against Escherichia coli T E M (24 h), 0.15 µg/mL; against Escherichia coli T E M (48 h), 0.15 µg/mL; in assay [14] (24 h), 5 µg/mL; in assay [14] (48 h) it was 5 µg/mL; in [2] (24 Hr.) it was at most 0.04 µg/mL. Also, the MIC in assay [2] (48 Hr.) was at most 0.04 µg/mL; in [3] (24 h), 0.08 µg/mL; in [3] (48 h), 0.08 µg/mL; in assay [4] (24 H), 0.08 µg/mL; in assay [4] (48 H) it was 0.08 µg/mL; in assay [5] (24 h) it was 0.15 µg/mL. Also, the MIC in [5] (48 h) was 0.15 µg/mL; against Escherichia coli 0 78 (setting [15]) it was 0.15 µg/mL; in the assay with Escherichia coli 0 78 (setting [16]), 0.15 µg/mL; against Escherichia coli DC 2 (24 H), 0.15 µg/mL; against Escherichia coli DC 2 (48 H), 0.3 µg/mL; with Escherichia coli UC 1894 (24 H), at most 0.04 µg/mL. Besides, the minimum inhibitory concentration (MIC) in the assay on Escherichia coli UC 1894 (48 H) is at most 0.04 µg/mL; in assay [6] (48 h), 0.3 µg/mL; in the assay with Providencia Du 48 (24 Hr.), 0.3 µg/mL; in the assay on Providencia Du 48 (48 Hr.), 0.3 µg/mL; in assay [7] (24 h), 0.08 µg/mL; in assay [7] (48 h) it was 0.08 µg/mL. Also, the M.I.C. in assay [1] amounted to 0.06 µg/mL; in assay [6], 0.3 µg/mL.

As to `CON=C(C(=O)NC1C(=O)N(S(=O)(=O)O)C1CF)c1csc(N)n1` [Example 11, (3S,4S)ΔZ 4-fluoromethyl-3-[2-(2-amino-4-thiazolyl)-2-methoxyimino-acetamido]-2-oxo-azetidine-1-sulfonic acid], the M.I.C. in the assay on Escherichia coli DC 0 (24 H) turned out to be 0.15 µg/mL; in assay [13] (24 H), 0.6 µg/mL; in assay [1], 2.5 µg/mL; in the assay with Escherichia coli 1507 E (24 H), 0.08 µg/mL; with Escherichia coli T E M (24 H), 0.08 µg/mL; in assay [14] (24 H), 10 µg/mL. In addition, the M.I.C. was at most 0.04 µg/mL in assay [2] (24 Hr.); 0.15 µg/mL in [3] (24 Hr.); 0.08 µg/mL in assay [4] (24 H); 0.08 µg/mL in [5] (24 H); 0.08 µg/mL in the assay with Escherichia coli 0 78 (24 H); 0.15 µg/mL in the assay with Escherichia coli DC 2 (24 H). The M.I.C. in the assay with Escherichia coli UC 1894 (24 H) was at most 0.04 µg/mL; in assay [6], 0.08 µg/mL; in the assay with Providencia Du 48 (24 Hr.), 0.3 µg/mL; in assay [7] (24 H), at most 0.04 µg/mL.

Regarding `Nc1nc(C(=NO)C(=O)NC2C(=O)N(S(=O)(=O)O)C2CCl)cs1` (mixture of isomers) [Example 4, Racemate of syn isomer of cis 4-chloromethyl-3-[2-(2-amino-4-thiazolyl)-2-hydroxyimino-acetamido]-2-oxo-azetidine-1-sulfonic acid], the MIC was 5 µg/mL in assay [1] (24 h); 5 µg/mL in [1] (48 h); 0.6 µg/mL in assay [2] (24 Hr.); 0.6 µg/mL in [2] (48 Hr.); 0.6 µg/mL in [3] (24 h); 1.2 µg/mL in assay [3] (48 h). In addition, the MIC in assay [8] (24 Hr.) came to 0.6 µg/mL; in assay [8] (48 Hr.), 0.6 µg/mL; in [9] (24 Hr.), 2.5 µg/mL; in assay [9] (48 Hr.) it was 2.5 µg/mL; in [10] (24 Hr.), 0.6 µg/mL; in assay [10] (48 Hr.), 0.6 µg/mL. The MIC came out at 1.2 µg/mL in assay [11] (24 Hr.); 2.5 µg/mL in assay [11] (48 Hr.); 5 µg/mL in [6] (24 h); 5 µg/mL in [6] (48 h); 0.6 µg/mL in the assay on Providencia Du 48 (24 Hr.); 1.2 µg/mL against Providencia Du 48 (48 Hr.). In addition, the MIC in assay [12] (24 Hr.) and in assay [12] (48 Hr.) was 0.6 µg/mL each time.
